Measured values taken from patent publication US9464081B2, “Pyrrolidine derivatives and their use as complement pathway modulators” (priority 2012, dated 2016).

The compounds below were run against Recombinant human factor D (Homo sapiens (Human), UniProt P00746) (assay: Human Complement Factor D Assay: Method 1). Conditions: 10 nM recombinant human factor D, substrate Z-Lys-thiobenzyl, fluorescence readout, read-out: IC50 Factor D inhibition.
Chain of Recombinant human factor D (P00746 26-253): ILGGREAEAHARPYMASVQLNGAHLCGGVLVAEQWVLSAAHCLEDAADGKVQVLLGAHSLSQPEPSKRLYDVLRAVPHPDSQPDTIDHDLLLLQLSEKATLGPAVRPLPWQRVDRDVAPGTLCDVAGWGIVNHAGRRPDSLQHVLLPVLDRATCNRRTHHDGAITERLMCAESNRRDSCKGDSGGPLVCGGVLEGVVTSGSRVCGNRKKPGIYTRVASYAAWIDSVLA
Type: biochemical
Protocol: Human Complement Factor D Assay: Method 1
Recombinant human factor D (expressed in E. coli and purified using standard methods) at 10 nM concentration is incubated with test compound at various concentrations for 1 hour at room temperature in 0.1 M Hepes buffer, pH 7.5, containing 1 mM MgCl2, 1 M NaCl and 0.05% CHAPS. A synthetic substrate Z-Lys-thiobenzyl and 2,4-dinitrobenzenesulfonyl-fluoresceine are added to final concentrations of 200 μM and 25 μM, respectively. The increase in fluorescence is recorded at excitation of 485 nm and emission at 535 nm in a microplate spectrofluorimeter. IC50 values are calculated from percentage of inhibition of complement factor D-activity as a function of test compound concentration.
Factor D Inhibition Data Using Method 1 to Determine the IC50s.
`CC(C)=C(F)CNC(=O)[C@@H]1C[C@H]2C[C@H]2N1C(=O)Cn1nc(C(N)=O)c2ccc(Cl)cc21` [Example 1, 6-Chloro-1-{2-[(1R,3S,5R)-3-(2-fluoro-3-methyl-but-2-enylcarbamoyl)-2-aza-bicyclo[3.1.0]hex-2-yl]-2-oxo-ethyl}-1H-indazole-3-carboxylic acid amide] showed an IC50 of 33 nM. For `CC(C)=C(F)CNC(=O)[C@@H]1C[C@H]2C[C@H]2N1C(=O)Cn1nc(C(N)=O)c2ccccc21` [Example 2, 1-{2-[(1R,3S,5R)-3-(2-Fluoro-3-methyl-but-2-enylcarbamoyl)-2-aza-bicyclo[3.1.0]hex-2-yl]-2-oxo-thyl}-1H-indazole-3-carboxylic acid amide], the IC50 was 35 nM. With `CC(C)=C(F)CNC(=O)[C@@H]1C[C@@H](F)CN1C(=O)Cn1nc(C(N)=O)c2ccncc21` [Example 3, 1-{2-[(2S,4R)-4-Fluoro-2-(2-fluoro-3-methyl-but-2-enylcarbamoyl)-pyrrolidin-1-yl]-2-oxo-ethyl}-1H-pyrazolo[3,4-c]pyridine-3-carboxylic acid amide] the IC50 was 255 nM. For `CC(C)=C(F)CNC(=O)[C@@H]1C[C@H]2C[C@H]2N1C(=O)Cn1nc(C(N)=O)c2ccc(C)cc21` [Example 4, 1-{2-[(1R,3S,5R)-3-(2-Fluoro-3-methyl-but-2-enylcarbamoyl)-2-aza-bicyclo[3.1.0]hex-2-yl]-2-oxo-ethyl}-6-methyl-1H-indazole-3-carboxylic acid amide], the IC50 was 450 nM. With `CO[C@H]1[C@@H](C(=O)NCC(F)=C(C)C)N(C(=O)Cn2nc(C(N)=O)c3ccncc32)C[C@@H]1F` [Example 5, 1-{2-[(2S,3S,4S)-4-Fluoro-2-(2-fluoro-3-methyl-but-2-enylcarbamoyl)-3-methoxy-pyrrolidin-1-yl]-2-oxo-ethyl}-1H-pyrazolo[3,4-c]pyridine-3-carboxylic acid amide] the IC50 was 253 nM. `CC(C)=C(F)CNC(=O)[C@@H]1C[C@@]2(CO)C[C@H]2N1C(=O)Cn1nc(C(N)=O)c2ccccc21` [Example 6, 1-{2-[(1R,3S,5S)-3-(2-Fluoro-3-methyl-but-2-enylcarbamoyl)-5-hydroxymethyl-2-aza-bicyclo[3.1.0]hex-2-yl]-2-oxo-ethyl}-1H-indazole-3-carboxylic acid amide] gave an IC50 of 99 nM. In the case of `CC(C)=C(F)CNC(=O)[C@@H]1C[C@@H](F)CN1C(=O)Cn1nc(C(N)=O)c2ccccc21` [Example 7, 1-{2-[(2S,4R)-4-Fluoro-2-(2-fluoro-3-methyl-but-2-enylcarbamoyl)-pyrrolidin-1-yl]-2-oxo-ethyl}-1H-indazole-3-carboxylic acid amide], the IC50 is reported as 56 nM. `CO[C@H]1[C@@H](C(=O)NCC(F)=C(C)C)N(C(=O)Cn2nc(C(N)=O)c3ccccc32)C[C@@H]1F` [Example 8, 1-{2-[(2S,3S,4S)-4-Fluoro-2-(2-fluoro-3-methyl-but-2-enylcarbamoyl)-3-methoxy-pyrrolidin-1-yl]-2-oxo-ethyl}-1H-indazole-3-carboxylic acid amide] gave an IC50 of 59 nM. With `CC(C)=C(F)CNC(=O)[C@@H]1C[C@H]2C[C@H]2N1C(=O)Cn1nc(C(N)=O)c2cc(C)nc(C)c21` [Example 9, 1-{2-[(1R,3S,5R)-3-(2-Fluoro-3-methyl-but-2-enylcarbamoyl)-2-aza-bicyclo[3.1.0]hex-2-yl]-2-oxo-ethyl}-5,7-dimethyl-1H-pyrazolo[3,4-c]pyridine-3-carboxylic acid amide] the IC50 was 356 nM. `CC(C)=C(F)CNC(=O)[C@@H]1C[C@H]2C[C@H]2N1C(=O)Cn1nc(C(N)=O)c2ccncc21` [Example 10, 1-{2-[(1R,3S,5R)-3-(2-Fluoro-3-methyl-but-2-enylcarbamoyl)-2-aza-bicyclo[3.1.0]hex-2-yl]-2-oxo-ethyl}-1H-pyrazolo[3,4-c]pyridine-3-carboxylic acid amide] gave an IC50 of 78 nM. Work on `CC(=O)c1nn(CC(=O)N2[C@@H]3C[C@@H]3C[C@H]2C(=O)NCC(F)=C(C)C)c2ccccc12` [Example 11, (1R,3S,5R)-2-[2-(3-Acetyl-indazol-1-yl)-acetyl]-2-aza-bicyclo[3.1.0]hexane-3-carboxylic acid (2-fluoro-3-methyl-but-2-enyl)-amide] yielded an IC50 of 19 nM. `CC(C)=C(F)CNC(=O)[C@@H]1C[C@H]2C[C@H]2N1C(=O)Cn1nc(C(N)=O)c2cc(C)ncc21` [Example 12, 1-{2-[(1R,3S,5R)-3-(2-Fluoro-3-methyl-but-2-enylcarbamoyl)-2-aza-bicyclo[3.1.0]hex-2-yl]-2-oxo-ethyl}-5-methyl-1H-pyrazolo[3,4-c]pyridine-3-carboxylic acid amide] showed an IC50 of 74 nM. For `CC(=O)c1nn(CC(=O)N2[C@@H]3C[C@@H]3C[C@H]2C(=O)NCC(F)=C(C)C)c2cnccc12` [Example 13, (1R,3S,5R)-2-[2-(3-Acetyl-pyrazolo[3,4-c]pyridin-1-yl)-acetyl]-2-aza-bicyclo[3.1.0]hexane-3-carboxylic acid (2-fluoro-3-methyl-but-2-enyl)-amide], the IC50 was 37 nM. In the case of `CC(C)=C(F)CNC(=O)[C@@H]1C[C@H]2C[C@H]2N1C(=O)Cn1nc(C(N)=O)c2ccnc(C)c21` [Example 14, 1-{2-[(1R,3S,5R)-3-(2-Fluoro-3-methyl-but-2-enylcarbamoyl)-2-aza-bicyclo[3.1.0]hex-2-yl]-2-oxo-ethyl}-7-methyl-1H-pyrazolo[3,4-c]pyridine-3-carboxylic acid amide], the IC50 is reported as 63 nM. `CCc1cc2c(C(N)=O)nn(CC(=O)N3[C@@H]4C[C@@H]4C[C@H]3C(=O)NCC(F)=C(C)C)c2cn1` [Example 15, 5-Ethyl-1-{2-[(1R,3S,5R)-3-(2-fluoro-3-methyl-but-2-enylcarbamoyl)-2-aza-bicyclo[3.1.0]hex-2-yl]-2-oxo-ethyl}-1H-pyrazolo[3,4-c]pyridine-3-carboxylic acid amide] showed an IC50 of 43 nM. `CC(=O)c1nn(CC(=O)N2[C@@H]3C[C@@H]3C[C@H]2C(=O)NCC(F)=C(C)C)c2ccc(OCc3ncccn3)cc12` [Example 16, (1R,3S,5R)-2-{2-[3-Acetyl-5-(pyrimidin-2-ylmethoxy)-indazol-1-yl]-acetyl}-2-aza-bicyclo[3.1.0]hexane-3-carboxylic acid (2-fluoro-3-methyl-but-2-enyl)-amide] showed an IC50 of 7 nM. Compound `NC(=O)c1nn(CC(=O)N2[C@@H]3C[C@@H]3C[C@H]2C(=O)NCC(F)=C2CCCC2)c2ccccc12` [Example 17, 1-{2-[(1R,3S,5R)-3-(2-Cyclopentylidene-2-fluoro-ethylcarbamoyl)-2-aza-bicyclo[3.1.0]hex-2-yl]-2-oxo-ethyl}-1H-indazole-3-carboxylic acid amide] has an IC50 of 128 nM. With `[2H]C([2H])([2H])C(=C(F)CNC(=O)[C@@H]1C[C@H]2C[C@H]2N1C(=O)Cn1nc(C(N)=O)c2ccccc21)C([2H])([2H])[2H]` [Example 18, 1-{2-[(1R,3S,5R)-3-(2-Fluoro-3-di-(trideutero-methyl)-allylcarbamoyl)-2-aza-bicyclo[3.1.0]hex-2-yl]-2-oxo-ethyl}-1H-indazole-3-carboxylic acid amide] the IC50 was 50 nM. `CC(C)=C(F)C(C)NC(=O)[C@@H]1C[C@H]2C[C@H]2N1C(=O)Cn1nc(C(N)=O)c2ccccc21` (stereo partly drawn) [Example 19, 1-{2-[(1R,3S,5R)-3-(2-Fluoro-1,3-dimethyl-but-2-enylcarbamoyl)-2-aza-bicyclo[3.1.0]hex-2-yl]-2-oxo-ethyl}-1H-indazole-3-carboxylic acid amide] was tested, and the IC50 was 7 nM. In the case of `NC(=O)c1nn(CC(=O)N2[C@@H]3C[C@@H]3C[C@H]2C(=O)NC/C(F)=C/C(F)(F)F)c2ccccc12` [Example 20, 1-(2-oxo-2-((1R,3S,5R)-3-(((Z)-2,4,4,4-tetrafluorobut-2-en-1-yl)carbamoyl)-2-azabicyclo[3.1.0]hexan-2-yl)ethyl)-1H-indazole-3-carboxamide], the IC50 is reported as 90 nM. `CC(C)=C(F)[C@H](C)NC(=O)[C@@H]1C[C@H]2C[C@H]2N1C(=O)Cn1nc(C(N)=O)c2ccccc21` [Example 21, 1-(2-((1R,3S,5R)-3-((S)-3-fluoro-4-methylpent-3-en-2-ylcarbamoyl)-2-azabicyclo[3.1.0]hexan-2-yl)-2-oxoethyl)-1H-indazole-3-carboxamide] gave an IC50 of 1800 nM. For `CC(C)=C(F)[C@@H](C)NC(=O)[C@@H]1C[C@H]2C[C@H]2N1C(=O)Cn1nc(C(N)=O)c2ccccc21` [Example 22, 1-(2-((1R,3S,5R)-3-((R)-3-fluoro-4-methylpent-3-en-2-ylcarbamoyl)-2-azabicyclo[3.1.0]hexan-2-yl)-2-oxoethyl)-1H-indazole-3-carboxamide], the IC50 was 6 nM.
